Our source for the ΔTm values is PMC6321567 (2018).

By ΔTm is commonly meant the shift of the melting midpoint relative to a reference.

The experiment has as its system 22HT (DNA, G4) AGGGTTAGGGTTAGGGTTAGGG
Kind of experiment: CD melting at 293 nm. The note with it: 10 mM Tris-HCl pH 7.2, 3 equiv. ligand.

With `CC[n+]1c(/C=C/c2ccc3c(c2)c2ccccc2n3CCCCn2ccnc2)sc2ccccc21`, the ΔTm reads like this: (100 mM KCl, 2 µM DNA, SD of Tm ±0.5 °C) 4.3 °C; (100 mM NaCl, 2 µM DNA, SD of Tm ±0.5 °C) 4.5 °C; (no added Na+ or K+, ligand-induced G4 folding, Tm without ligand <14 °C) greater than 30.6 °C.
